Data: article PMC6383929, “Design, antimicrobial activity and mechanism of action of Arg-rich ultra-short cationic lipopeptides” (PLoS ONE, 2019)
Converted amounts (≈) assume the structure as drawn. Where a SMILES comes first, the peptide text is derived from it. The star is where a group is joined. Lauroyl = CCCCCCCCCCCC(=O)*

Legend:
[1] = tested on: S. epidermidis ATCC 12228; format: cell-based, Staphylococcus epidermidis; details: ATCC 12228, 24 h
Text: (§1) Bacteria used in this study were Escherichia coli ATCC 25922 and O18K1H7, Staphylococcus aureus ATCC 25923 and ATCC 29213, Pseudomonas aeruginosa ATCC 27853, Staphylococcus epidermidis ATCC 12228, Enterococcus faecalis ATCC 29212, Bacillus subtilis DSM 4181, Listeria monocytogenes DSM 20600, Salmonella typhimurium ATCC 14028, Acinetobacter baumannii ATCC 19606 and 17978, Klebsiella pneumoniae ATCC 13883 and 700603, Stenotrophomonas maltophilia ATCC 13637 and Burkholderia cenocepacia J2315. In addition to reference strains, a clinical isolate of E. faecalis vancomycin-resistant (VREF, strain M), and three clinical isolates of S. aureus methicillin-resistant (MRSA, strains E, G and 11), kindly provided by Dr. Lucilla Dolzani, were used. All MRSA strains are resistant to GEN, IPM, OXA, PEN, CIP and CEF; the S. aureus E strain is also resistant to CLI and ERY. VREF strain is resistant to AMK, ATM, GEN, NET, PEN, TEC, TET, TOB and VAN.
(§2) For the assays, overnight bacterial cultures were diluted 1:30 in fresh Mueller-Hinton Broth (MHB, Difco) and incubated at 37°C with shaking for approximately 2h.
The antimicrobial activity of USCLs was determined by the Minimum Inhibitory Concentration (MIC) assay, according to the guidelines of CLSI (Clinical & Laboratory Standards Institute) and described in [30, 31]. […]

[2] = tested on: S. typhimurium ATCC 14028; format: cell-based, Salmonella typhimurium; details: ATCC 14028, 24 h
Text: as §1, §2
(§3) The antimicrobial activity of USCLs was determined by the Minimum Inhibitory Concentration (MIC) assay, according to the guidelines of CLSI (Clinical & Laboratory Standards Institute) and described in [30, 31]. Briefly, the assays were performed in 96-well microplates in appropriate broth (MHB or SAB). […] For bacteria, a mid-log phase bacterial suspension at 2.5 × 10^5 CFU/mL in MHB was used, and the microplates incubated at 37°C for 24h. The fungal suspension in SAB broth was used at a final concentration of 5 × 10^4 cells/mL. Microplates were then incubated at 30°C for 48h. The MIC value was taken as the lowest concentration of USCLs resulting in the complete inhibition of visible bacterial or fungal growth after appropriate incubation time. Results derive from at least three independent experiments carried out in duplicate.

A. baumannii ATCC 19606 = format: cell-based, Acinetobacter baumannii; details: ATCC 19606, 24 h
Text: as §1, §2, §3

A. baumannii ATCC 17978 = format: cell-based, Acinetobacter baumannii; details: ATCC 17978, 24 h
Text: as §1, §2, §3

K. pneumoniae ATCC 13883 = format: cell-based, Klebsiella pneumoniae; details: ATCC 13883, 24 h
Text: as §1, §2, §3

[3] = tested on: K. pneumoniae ATCC 700603; format: cell-based, Klebsiella pneumoniae; details: ATCC 700603, 24 h
Text: as §1, §2, §3

[4] = tested on: S. aureus E (MRSA clinical isolate); format: cell-based, Staphylococcus aureus; details: E ( clinical isolate, 24 h)
Text: as §1, §2, §3

[5] = tested on: S. aureus G (MRSA clinical isolate); format: cell-based, Staphylococcus aureus; details: G ( clinical isolate, 24 h)
Text: as §1, §2, §3

S. aureus ATCC 29213 = format: cell-based, Staphylococcus aureus; details: ATCC 29213, 24 h
Text: as §1, §2, §3

B. cenocepacia J2315 = format: cell-based, Burkholderia cenocepacia; details: 48 h
Text: as §1, §2
as §3, with “For bacteria, a mid-log phase bacterial suspension at 2.5 × 10^5 CFU/mL in MHB was used, and the microplates incubated at 37°C for 24h.” left out

[6] = RP-HPLC retention time (hydrophobicity); format: physicochemical; details: stated to reliably reflect the hydrophobicity in aqueous solution, assessed and provided by GenScript
Description: GenScript (Piscataway, NJ, USA) carried out the custom synthesis of USCLs by using high efficient solid phase peptide synthesis. The fatty acid was conjugated to the N-terminus of the peptide using the same procedure followed to attach protected amino acids to the growing peptide chain for synthesis. The purity (>90%), sequence and molecular weight of USCLs were assessed and provided by GenScript using RP-HPLC and ESI-MS. USCLs were dissolved in sterile water or DMSO at 10 mg/mL, according to manufacturer's indications.

C. albicans ATCC 90029 = format: cell-based, Candida albicans; details: ATCC 90029, 48 h
Description: (§4) Fungal strains used were Candida albicans ATCC 90029 and SC5314. Fungi were grown on Sabouraud dextrose (SAB, Difco) agar plates at 30°C for 48h. The initial fungal inoculum was prepared by picking and suspending five colonies in 5 mL of sterile PBS.
as §3

C. albicans SC 5314 = format: cell-based, Candida albicans; details: SC 5314, 48 h
Description: as §4, §3

[7] = tested on: L. monocytogenes DSM 20600; format: cell-based, Listeria monocytogenes; details: DSM 20600, 24 h
Text: as §1, §2, §3

E. coli O18K1H7 = format: cell-based, Escherichia coli; details: O18K1H7, 24 h
Text: as §1, §2, §3

[8] = tested on: S. maltophilia ATCC 13637; format: cell-based, Stenotrophomonas maltophilia; details: ATCC 13637, 48 h
Text: as §1, §2
as §3, with “For bacteria, a mid-log phase bacterial suspension at 2.5 × 10^5 CFU/mL in MHB was used, and the microplates incubated at 37°C for 24h.” left out

S. aureus ATCC 25923 = format: cell-based, Staphylococcus aureus; details: ATCC 25923, 24 h
Text: as §1, §2, §3

[9] = tested on: S. aureus 11 (MRSA clinical isolate); format: cell-based, Staphylococcus aureus; details: 11 ( clinical isolate, 24 h)
Text: as §1, §2, §3

E. faecalis ATCC 29212 = format: cell-based, Enterococcus faecalis; details: ATCC 29212, 24 h
Text: as §1, §2, §3

P. aeruginosa ATCC 27853 = format: cell-based, Pseudomonas aeruginosa; details: ATCC 27853, 24 h
Text: as §1, §2, §3

E. coli ATCC 25922 = format: cell-based, Escherichia coli; details: ATCC 25922, 24 h
Text: as §1, §2, §3

[10] = tested on: E. faecalis M (VREF clinical isolate); format: cell-based, Enterococcus faecalis; details: M (VREF clinical isolate, 24 h)
Text: as §1, §2, §3

B. subtilis DSM 4181 = format: cell-based, Bacillus subtilis; details: DSM 4181, 24 h
Text: as §1, §2, §3

SMILES	MIC [2] [µg/mL]	MIC (A. baumannii ATCC 19606) [µg/mL]	MIC (A. baumannii ATCC 17978) [µg/mL]	MIC (K. pneumoniae ATCC 13883) [µg/mL]	MIC [3] [µg/mL]	MIC [4] [µg/mL]	MIC [5] [µg/mL]	MIC (S. aureus ATCC 29213) [µg/mL]	MIC (B. cenocepacia J2315) [µg/mL]	Retention time [6] [min]	MIC (C. albicans ATCC 90029) [µg/mL]	MIC (C. albicans SC 5314) [µg/mL]	MIC [7] [µg/mL]	MIC (E. coli O18K1H7) [µg/mL]	MIC [8] [µg/mL]	MIC (S. aureus ATCC 25923) [µg/mL]	MIC [9] [µg/mL]	MIC (E. faecalis ATCC 29212) [µg/mL]	MIC [10] [µg/mL]	MIC (B. subtilis DSM 4181) [µg/mL]	further results
CCCCCCCCCCCC(=O)N[C@@H](CCCNC(=N)N)C(=O)N[C@H](C(=O)N[C@@H](Cc1c[nH]c2ccccc12)C(=O)N[C@@H](CCCNC(=N)N)C(N)=O)[C@@H](C)CC [Lp-I] (Lauroyl-RIWR-NH2)	25 (≈ 30.8 µM)	25 (≈ 30.8 µM)	25 (≈ 30.8 µM)	100 (≈ 123 µM)	50 (≈ 61.6 µM)	3.125 (≈ 3.85 µM)	3.125 (≈ 3.85 µM)	3.125 (≈ 3.85 µM)	12.5 (≈ 15.4 µM)												MIC [1]: 3.125 µg/mL (≈ 3.85 µM)
CCCCCCCCCCCC(=O)N[C@@H](CCCNC(=N)N)C(=O)N[C@@H](CCCNC(=N)N)C(=O)N[C@@H](Cc1ccccc1)C(=O)N[C@@H](Cc1c[nH]c2ccccc12)C(N)=O [Lau-RRFW, Lau-RRFW-NH2] (Lauroyl-RRFW-NH2)		12.5 (≈ 14.8 µM)	12.5 (≈ 14.8 µM)	50 (≈ 59.2 µM)	25 (≈ 29.6 µM)	3.125 (≈ 3.7 µM)	6.25 (≈ 7.4 µM)	3.125 (≈ 3.7 µM)	12.5 (≈ 14.8 µM)	22.609	3.125 (≈ 3.7 µM)	12.5 (≈ 14.8 µM)	3.125 (≈ 3.7 µM)	12.5 (≈ 14.8 µM)	6.25 (≈ 7.4 µM)	3.125 (≈ 3.7 µM)	6.25 (≈ 7.4 µM)	6.25 (≈ 7.4 µM)			
CCCCCCCCCCCC(=O)N[C@@H](CCCNC(=N)N)C(=O)N[C@@H](CCCNC(=N)N)C(=O)N[C@H](C(=O)N[C@@H](Cc1c[nH]c2ccccc12)C(N)=O)[C@@H](C)CC [Lau-RRIW, Lau-RRIW-NH2] (Lauroyl-RRIW-NH2)	25 (≈ 30.8 µM)	12.5 (≈ 15.4 µM)	25 (≈ 30.8 µM)			3.125 (≈ 3.85 µM)	3.125 (≈ 3.85 µM)	3.125 (≈ 3.85 µM)	6.25 (≈ 7.71 µM)	20.957	3.125 (≈ 3.85 µM)	12.5 (≈ 15.4 µM)	3.125 (≈ 3.85 µM)	12.5 (≈ 15.4 µM)	12.5 (≈ 15.4 µM)	3.125 (≈ 3.85 µM)		6.25 (≈ 7.71 µM)	6.25 (≈ 7.71 µM)	3.125 (≈ 3.85 µM)	MIC (P. aeruginosa ATCC 27853): 12.5 µg/mL (≈ 15.4 µM); MIC (E. coli ATCC 25922): 12.5 µg/mL (≈ 15.4 µM)
CCCCCCCCCCCC(=O)N[C@@H](CCCNC(=N)N)C(=O)N[C@@H](CCCNC(=N)N)C(=O)N[C@@H](Cc1ccccc1)C(=O)N[C@@H](Cc1c[nH]c2ccccc12)C(=O)N[C@@H](CCCNC(=N)N)C(=O)N[C@@H](CCCNC(=N)N)C(N)=O [Lp-F^RR, Lau-RRFWRR-NH2] (Lauroyl-RRFWRR-NH2)	25 (≈ 21.6 µM)		25 (≈ 21.6 µM)	25 (≈ 21.6 µM)	25 (≈ 21.6 µM)	3.125 (≈ 2.7 µM)	3.125 (≈ 2.7 µM)		12.5 (≈ 10.8 µM)	22.087	1.56 (≈ 1.35 µM)	100 (≈ 86.4 µM)	1.56 (≈ 1.35 µM)	25 (≈ 21.6 µM)	12.5 (≈ 10.8 µM)	3.125 (≈ 2.7 µM)	3.125 (≈ 2.7 µM)	6.25 (≈ 5.4 µM)	6.25 to 12.5	1.56 (≈ 1.35 µM)	MIC (P. aeruginosa ATCC 27853): 12.5 µg/mL (≈ 10.8 µM); MIC (E. coli ATCC 25922): 12.5 µg/mL (≈ 10.8 µM)
CCCCCCCCCCCC(=O)N[C@@H](CCCNC(=N)N)C(=O)N[C@@H](CCSC)C(=O)N[C@@H](Cc1c[nH]c2ccccc12)C(=O)N[C@@H](CCCNC(=N)N)C(N)=O [Lp-M, Lau-RMWR-NH2] (Lauroyl-RMWR-NH2)		25 (≈ 30.2 µM)	25 (≈ 30.2 µM)	>100	100 (≈ 121 µM)	6.25 (≈ 7.54 µM)	6.25 (≈ 7.54 µM)		25 (≈ 30.2 µM)	12.393	3.125 (≈ 3.77 µM)	12.5 (≈ 15.1 µM)	3.125 (≈ 3.77 µM)	25 (≈ 30.2 µM)	12.5 (≈ 15.1 µM)	6.25 (≈ 7.54 µM)	6.25 (≈ 7.54 µM)	6.25 (≈ 7.54 µM)	12.5 (≈ 15.1 µM)	3.125 (≈ 3.77 µM)	MIC [1]: 3.125 µg/mL (≈ 3.77 µM)
